Experimental data taken from patent US20130280169A1, “CENTRAL NERVOUS SYSTEM TISSUE-LABELING COMPOSITION, METHOD FOR LABELING CENTRAL NERVOUS SYSTEM TISSUE, AND SCREENING METHOD USING CENTRAL NERVOUS SYSTEM TISSUE-LABELING COMPOSITION” (CANON KABUSHIKI KAISHA, priority 2009, published 2013).

Key:
[1] = tested on: mouse brain tissue section; experiment: Labeling of a mouse brain tissue section, confocal microscope; conditions: 3-month-old B10 mouse, 10 μm frozen section, 1 ug/mL in PBS, incubation one hour
Procedure: A 3-month-old B10 mouse was sacrificed by diethyl ether anesthesia, and the brain is collected. The brain thus removed is embedded in an OCT compound, and then frozen in isopentane cooled with liquid nitrogen. The resulting brain was sliced into thin sections of approximately 10 μm in thickness in a cryostat cooled to −20° C. The thin sections were then placed on a slide glass and dried, whereby a section of the brain tissue was prepared. To the section of […] tissue thus prepared, a 1 ug/mL solution of the compound (13) in PBS was added, followed by incubation for one hour. After one hour, the slide glass was washed with PBST (PBS containing 0.2% Triton-X100) three times, and then sealed with a cover glass. Upon observation of the slide glass by a confocal microscope (manufactured by Carl Zeiss, Inc., Pascal
A 3-month-old B10 mouse was sacrificed by diethyl ether anesthesia, and the brain is collected. The brain thus removed is embedded in an OCT compound, and then frozen in isopentane cooled with liquid nitrogen. The resulting brain was sliced into thin sections of approximately 10 μm in thickness in a cryostat cooled to −20° C. The thin sections were then placed on a slide glass and dried, whereby a section of the brain tissue was prepared. To the section of […] tissue thus prepared, a 1 ug/mL solution of the compound (27) in PBS was added, followed by incubation for one hour. […]

[2] = tested on: central nervous system tissues of juvenile zebrafish (7 dpf); experiment: Labeling the central nervous system tissue of live 7 dpf juvenile zebrafish by immersion in labeling solution
Procedure: Subsequently, the labeling solution 1 in the well was removed and replaced by 1 mL of distilled water. This operation was repeated three times. Then, juvenile zebrafish was removed from the well and embedded in 5% low melting point agarose gel on a slide glass so as to restrict movement, and the state of labeling in the central nervous system tissues were observed from the lateral side of zebrafish by a fluorescence stereomicroscope (manufactured by Leica Microsystems, MZ16FA). Also, the brain nerve tissues were observed from the parietal region by a confocal microscope (manufactured by Carl Zeiss, Inc., Pascal Exciter).

mouse brain = experiment: Labeling of mouse brain after intraperitoneal administration; type: in vivo; conditions: 3-month-old B10 mouse, 0.2 ml single intraperitoneal dose, brain collected after one hour
Procedure: The compound (13) is added to an equimolar solution of NaOH so that a concentration of 10 mg/ml is reached, and the resulting mixture is centrifuged at 14 krpm for five minutes to obtain a supernatant. Then, 0.2 ml of the supernatant thus obtained is intraperitoneally administered to a 3-month-old B10 mouse in a single dose. After one hour, the animal thus treated is sacrificed by diethyl ether anesthesia, and the brain is collected. The brain thus removed is embedded in an OCT compound, and then frozen in isopentane cooled with liquid nitrogen. The resulting brain was sliced into thin sections of approximately 10 μm in thickness in a cryostat cooled to −20° C. The thin sections were then placed on a slide glass and dried, whereby a section of the brain tissue was prepared. The brain tissue section thus prepared was observed under a confocal microscope (manufactured by Carl Zeiss, Inc., Pascal Exciter).
After one hour, the animal thus treated is sacrificed by diethyl ether anesthesia, and the brain is collected. The brain thus removed is embedded in an OCT compound, and then frozen in isopentane cooled with liquid nitrogen. The resulting brain was sliced into thin sections of approximately 10 μm in thickness in a cryostat cooled to −20° C. The thin sections were then placed on a slide glass and dried, whereby a section of the brain tissue was prepared. […]

[3] = Excitation and fluorescence wavelength by FL4500 fluorescence spectrophotometer
[4] = tested on: brain of juvenile zebrafish; conditions: according to Patent Literature 3; cited from earlier work
[5] = 7 dpf juvenile zebrafish, labeling solution 1 μg/mL, one hour
[6] = aqueous solution, 10 mg/mL DMSO solution diluted 500-fold with distilled water
[7] = juvenile zebrafish, labeling solution 1 μg/mL, one hour (Table 2)
[8] = aqueous solution, 10 mg/mL DMSO solution diluted 500-fold with distilled water (Table 2)
[9] = 7 dpf juvenile zebrafish, labeling solution 1 μg/mL, one hour (Table 3)
[10] = 5 μM chloroform solution (Examples 30 to 34)
[11] = 5 ηM DMSO solution (Examples 35 to 46)

In the case of `CCN1c2ccc(/C=C3/SC(=S)N(CCC(=O)O)C3=O)cc2C2CCCC21` (stereo not shown) [(13)], the “Labeling property in a mouse brain tissue section” value [1] is reported as “confirmed to exert a labeling property”, the Labeling property [2, 5] is reported as “++” and the “Labeling property in a mouse brain by intraperitoneal administration” value (mouse brain) is reported as “confirmed to exert a labeling property”. For the same compound, the λem [3, 6] was 604 and the λex [3, 6] was 576.
In the case of `CCCN(CCC)c1ccc2cc(-c3nc4ccccc4[nH]3)c(=O)oc2c1` [Compound 25], the Fluorescence sensitivity [2, 7] is reported as “++”, the Labeling property [2, 7] is reported as “++” and the “Excitation wavelength λex” value [3, 8] is reported as 463. For the same compound, the “Fluorescence wavelength λem” value [3, 8] was 509 and the “Stokes shift λem − λex” value [3, 8] was 46.
For `CCN(CC)c1ccc2cc(-c3nc4ccc(C)cc4o3)c(=O)oc2c1` [Compound 27], the “Labeling property in a mouse brain tissue section” value [1] was “confirmed to exert a labeling property”, the Fluorescence sensitivity [2, 7] was “++” and the Labeling property [2, 7] was “++”. For the same compound, the “Excitation wavelength λex” value [3, 8] was 472, the “Fluorescence wavelength λem” value [3, 8] was 504 and the “Stokes shift λem − λex” value [3, 8] was 32.
With `O=c1oc2ccc3ccccc3c2cc1-c1nc2ccccc2[nH]1` [Compound 28] the Fluorescence sensitivity [2, 7] was “+”, the Labeling property [2, 7] was “+” and the “Excitation wavelength λex” value [3, 8] was 410. The “Fluorescence wavelength λem” value [3, 8] was 540 and the “Stokes shift λem − λex” value [3, 8] was 130.
In the case of `O=C1c2ccccc2-c2cc(=O)n(C3CCCCC3)c3ccc(NC4CCCCC4)c1c23` [Compound 29], the Fluorescence sensitivity [2, 9] is reported as “+”, the “Excitation wavelength λex” value [3, 10] is reported as 547 and the “Fluorescence wavelength λem” value [3, 10] is reported as 592.
For `CCCCn1c(=O)cc2c3c(c(NC4CCCCC4)ccc31)C(=O)c1ccccc1-2` [Compound 30], the Fluorescence sensitivity [2, 9] was “+”, the “Excitation wavelength λex” value [3, 10] was 548 and the “Fluorescence wavelength λem” value [3, 10] was 575.
For `CCCCC(CC)CNc1ccc2c3c(cc(=O)n2CCCC)-c2ccccc2C(=O)c13` (stereo not shown) [Compound 31], the Fluorescence sensitivity [2, 9] was “+”, the “Excitation wavelength λex” value [3, 10] was 547 and the “Fluorescence wavelength λem” value [3, 10] was 574.
In the case of `CCCCn1c(=O)cc2c3c(c(NCCC4=CCCCC4)ccc31)C(=O)c1ccccc1-2` [Compound 32], the Fluorescence sensitivity [2, 9] is reported as “+”, the “Excitation wavelength λex” value [3, 10] is reported as 544 and the “Fluorescence wavelength λem” value [3, 10] is reported as 573.
For `CCCCOCCCNc1ccc2c3c(cc(=O)n2CCCC)-c2ccccc2C(=O)c13` [Compound 33], the Fluorescence sensitivity [2, 9] was “+”, the “Excitation wavelength λex” value [3, 10] was 544 and the “Fluorescence wavelength λem” value [3, 10] was 573.
For `O=C(O)CCN1C(=O)/C(=C\c2cc(Br)c3c(c2)C2CCCC2N3c2ccc(Br)cc2)SC1=S` (stereo not shown) [Compound 34], the Fluorescence sensitivity [2, 9] was “+”, the “Excitation wavelength λex” value [3, 11] was 474 and the “Fluorescence wavelength λem” value [3, 11] was 590.
For `COc1ccc(N2c3ccc(/C=C4/SC(=S)N(CCC(=O)O)C4=O)cc3C3CCCC32)cc1` (stereo not shown) [Compound 35], the Fluorescence sensitivity [2, 9] was “++”, the “Excitation wavelength λex” value [3, 11] was 521 and the “Fluorescence wavelength λem” value [3, 11] was 634.
In the case of `O=C(O)CCN1C(=O)/C(=C\c2ccc3c(c2)C2CCCC2N3Cc2ccccc2)SC1=S` (stereo not shown) [Compound 36], the Fluorescence sensitivity [2, 9] is reported as “+”, the “Excitation wavelength λex” value [3, 11] is reported as 510 and the “Fluorescence wavelength λem” value [3, 11] is reported as 584.
For `O=C(O)CCN1C(=O)/C(=C\c2ccc3c(c2)C2CCCC2N3c2ccccc2)SC1=S` (stereo not shown) [Compound 37], the Fluorescence sensitivity [2, 9] was “++”, the “Excitation wavelength λex” value [3, 11] was 502 and the “Fluorescence wavelength λem” value [3, 11] was 604.
With `COc1ccc2cc(N3c4ccc(/C=C5/SC(=S)N(CCC(=O)O)C5=O)cc4C4CCCC43)ccc2c1` (stereo not shown) [Compound 38] the Fluorescence sensitivity [2, 9] was “+”, the “Excitation wavelength λex” value [3, 11] was 521 and the “Fluorescence wavelength λem” value [3, 11] was 646.
In the case of `CN1c2ccc(/C=C3/SC(=S)N(CCC(=O)O)C3=O)cc2C2CCCC21` (stereo not shown) [Compound 39], the Fluorescence sensitivity [2, 9] is reported as “++”, the “Excitation wavelength λex” value [3, 11] is reported as 517 and the “Fluorescence wavelength λem” value [3, 11] is reported as 590.
In the case of `CCN1c2ccc(/C=C3/SC(=S)N(CCC(=O)O)C3=O)cc2CC1C` (stereo not shown) [Compound 40], the Fluorescence sensitivity [2, 9] is reported as “++”, the “Excitation wavelength λex” value [3, 11] is reported as 509 and the “Fluorescence wavelength λem” value [3, 11] is reported as 593.
In the case of `CCn1c2ccccc2c2cc(/C=C3/SC(=S)N(CCC(=O)O)C3=O)ccc21` [Compound 41], the Fluorescence sensitivity [2, 9] is reported as “+”, the “Excitation wavelength λex” value [3, 11] is reported as 452 and the “Fluorescence wavelength λem” value [3, 11] is reported as 540.
In the case of `CCCN1c2ccc(/C=C3/SC(=S)N(CCC(=O)O)C3=O)cc2C2CCCC21` (stereo not shown) [Compound 42], the Fluorescence sensitivity [2, 9] is reported as “++”, the “Excitation wavelength λex” value [3, 11] is reported as 519 and the “Fluorescence wavelength λem” value [3, 11] is reported as 592.
With `CCN1c2ccc(/C=C/C=C3/SC(=S)N(CCC(=O)O)C3=O)cc2C2CCCC21` (stereo not shown) [Compound 43] the Fluorescence sensitivity [2, 9] was “++”, the “Excitation wavelength λex” value [3, 11] was 564 and the “Fluorescence wavelength λem” value [3, 11] was 671.
With `CSc1ccc(N2c3ccc(/C=C4/SC(=S)N(CCC(=O)O)C4=O)cc3C3CCCC32)cc1` (stereo not shown) [Compound 44] the Fluorescence sensitivity [2, 9] was “++”, the “Excitation wavelength λex” value [3, 11] was 518 and the “Fluorescence wavelength λem” value [3, 11] was 647.
With `CCN1CCc2cc(/C=C3/SC(=S)N(CCC(=O)O)C3=O)ccc21` [Compound 45] the Fluorescence sensitivity ([2]; 7 dpf juvenile zebrafish, labeling solution 45 with 3 μg/mL dye compound, one hour (Table 3)) was “+”, the “Excitation wavelength λex” value [3, 11] was 510 and the “Fluorescence wavelength λem” value [3, 11] was 597.
In the case of `Cc1cc(-c2ccc(/N=N/c3ccc4c(S(=O)(=O)O)cc(S(=O)(=O)O)c(N)c4c3O)c(C)c2)ccc1/N=N/c1ccc2c(S(=O)(=O)O)cc(S(=O)(=O)O)c(N)c2c1O` [Evans blue], the “Migration of administered dye into the brain confirmed up to” value (from here on “Migration”) [4] is listed as “up to 4 dpf”.
For `O=C1OC2(c3ccc(O)cc3Oc3cc(O)ccc32)c2ccccc21` [Fluorescein, reference compound], the Labeling property [2, 5] is listed as “−” and the “Migration” value [4] is listed as ≤ 8 dpf.
For rhodamine 123, the “Migration” value [4] is listed as ≤ 5 dpf.
